Data on one molecule can be found in patent publication US20230279018A1, “AP[…] INHIBITION” (priority 2020, published 2023).

A word on the EC50: it is the concentration that produces a half-maximal response. What is called Kd is a measure of binding affinity in units of concentration.

One experiment deals with Pf Dd2. In words: Pf Dd2 growth inhibition assay. The experiment is classed as cell-based, Plasmodium falciparum. From the text:
EC50 assays were run as described in Int'l Pub Nos. WO 2015070204, WO 2018175385, and Kato, N, et al. Nature 538 (2016): 344-349, which are hereby incorporated by reference in its entirety. The inhibition of the aminoacylation activity of Pf (Plasmodium falciparum), Pv (Plasmodium vivax), Hs (Human) and Pf-Mut (L550V) cFRS enzymes by Compound 1 are illustrated in FIG. 1.

The target of another experiment is T1, HscFRS (Homo sapiens, UniProt Q9Y285).
T1 sequence (Q9Y285 1-508): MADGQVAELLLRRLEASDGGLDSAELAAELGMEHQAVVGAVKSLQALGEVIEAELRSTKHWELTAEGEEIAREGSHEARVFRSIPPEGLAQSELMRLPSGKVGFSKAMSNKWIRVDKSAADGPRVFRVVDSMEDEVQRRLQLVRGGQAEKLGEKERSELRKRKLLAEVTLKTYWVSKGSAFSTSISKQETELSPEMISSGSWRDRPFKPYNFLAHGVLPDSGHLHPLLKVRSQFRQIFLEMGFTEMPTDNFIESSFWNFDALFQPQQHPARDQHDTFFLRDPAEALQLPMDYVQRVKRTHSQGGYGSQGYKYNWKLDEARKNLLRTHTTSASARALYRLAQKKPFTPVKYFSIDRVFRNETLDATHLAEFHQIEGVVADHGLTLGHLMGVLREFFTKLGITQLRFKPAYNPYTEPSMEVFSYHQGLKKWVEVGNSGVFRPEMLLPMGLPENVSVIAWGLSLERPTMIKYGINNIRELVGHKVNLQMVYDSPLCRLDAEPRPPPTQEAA
T1 sequence (Q9NSD9 1-589 partner): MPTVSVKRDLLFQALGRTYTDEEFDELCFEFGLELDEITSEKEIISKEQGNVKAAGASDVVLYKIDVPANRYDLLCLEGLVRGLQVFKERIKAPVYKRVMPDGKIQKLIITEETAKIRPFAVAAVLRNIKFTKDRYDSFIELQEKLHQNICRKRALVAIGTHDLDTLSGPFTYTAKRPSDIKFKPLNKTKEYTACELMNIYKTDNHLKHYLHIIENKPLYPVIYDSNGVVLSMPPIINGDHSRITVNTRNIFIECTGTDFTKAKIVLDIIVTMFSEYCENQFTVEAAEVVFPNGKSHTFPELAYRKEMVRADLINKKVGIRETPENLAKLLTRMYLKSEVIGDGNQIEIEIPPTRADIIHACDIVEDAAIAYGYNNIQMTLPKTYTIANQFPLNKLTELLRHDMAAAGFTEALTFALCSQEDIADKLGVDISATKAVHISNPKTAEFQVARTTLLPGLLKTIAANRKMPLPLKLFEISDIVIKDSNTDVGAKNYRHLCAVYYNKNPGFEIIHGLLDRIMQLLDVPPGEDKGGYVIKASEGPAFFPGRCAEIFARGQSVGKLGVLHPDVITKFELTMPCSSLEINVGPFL
In words: Surface Plasmon Resonance binding, HscFRS. The note with it: SPR, 25° C., PBS pH 7.4, 5% DMSO; read-out: cFRS Kd, Hs. On the procedure: Surface Plasmon Resonance experiments to evaluate the binding of Compound 1 to proteins were carried out on a Biacore T200 instrument (GE Healthcare) at 25° C. The binding experiments were performed in buffer 10 mM phosphate buffered saline (PBS), pH 7.4, containing 5% dimethyl sulfoxide (DMSO). The flow system was primed with the running buffer before the initiation of the experiment. Both PfcFRS and HscFRS were immobilized to Sensor Chip CM5 by standard amine coupling chemistry using N-hydroxysuccinimide (NHS) and ethyl(dimethylaminopropyl) carbodiimide (EDC), to an immobilization level of approximately 1500 RU. The binding experiments were carried out in a single cycle kinetics mode. Compound 1 was serially diluted in running buffer, and injected at a flow rate of 60 μl min^−1 across both surface for 60 s and dissociation were set up for 120 s. The analysis was done using Biaevaluation (GE Healthcare) and GraphPad Prism 7 software (GraphPad Software Inc, USA). […] The equilibrium dissociation constants (Kd) were determined by plotting the measured response (Req) as a function of the analyte concentration. […] Measured sensograms illustrating the binding of various concentrations of Compound 1 to the protein are shown in FIG. 3B (PfcFRS) and 3C (HscFRS) including both the measured data and the 1:1 binding model fit.

SMILES strings stand for the structures.

As to `COC[C@@H]1[C@H](c2ccc(C#Cc3ccccc3)cc2)[C@@H]2CN(C(=O)Nc3ccc(OC4CC4)cc3)C[C@@H](O)[C@@H](O)CN12` [Compound 1, (3S,4R,8R,9R,10S)—N-(4-cyclopropoxyphenyl)-3,4-dihydroxy-10-(methoxymethyl)-9-(4-(phenylethynyl)phenyl)-1,6-diazabicyclo[6.2.0]decane-6-carboxamide], the EC50 in the experiment on Pf Dd2 (Plasmodium falciparum, DD2, read-out: PfDd2 growth inhibition EC50) is under 0.001 µM. The “efficacy by EC50 Pf Dd2 growth inhibition relative to comparator” value with Pf Dd2 (versus (3S,4R,8R,9S,10S)-10-((dimethylamino)methyl) analogue) is on record as “three fold better efficacy”. Further, the dissociation constant Kd at HscFRS turned out to be 16 µM.
